Assay [1] concerns the target hyaluronidase enzyme. The assay is described as follows: hyaluronic acid degradation, DMAB colorimetric, absorbance […] nm. Type of assay: biochemical. The following applies: hyaluronic acid 1 mg/mL in 0.1 M acetate pH 3.5, CaCl2; positive control.
The target in assay [2] is T1, Collagenase enzyme, from Clostridium histolyticum (ChC).
T1 construct: gene colG; native enzyme preparation, ColG / ColH not distinguished
The experiment in a line: FALGPA hydrolysis, absorbance […] nm. The conditions noted are these: Tricine buffer 50 mM, 400 mM NaCl, 10 mM CaCl2, pH 7.5, 15 min preincubation; positive control. Type of assay: biochemical, Hathewaya histolytica.

Turning to `O=c1cc(CO)occ1O` [Kojic acid], the “Parameters IC50 (μg/mL) / Hyaluronidase” value in assay [1] was found to be 14.46 ± 0.6 µg/mL.

Regarding `O=c1c(O)c(-c2ccc(O)c(O)c2)oc2cc(O)cc(O)c12` [Quercetin], in assay [2], the “Parameters IC50 (μg/mL) / Collagenase” value was 24.83 ± 1.8 µg/mL.

Values taken from publication PMC9919735, “Cupressus arizonica Greene: Phytochemical Profile and Cosmeceutical and Dermatological Properties of Its Leaf Extracts” (Molecules, 2023).
